The source of these data is patent US20060270708A1, “Novel process for preparation of isotonic aqueous injection of ropivacaine” (Navinta LLC, priority 2005, published 2006).

SMILES strings stand for the structures.

The conditions of data set [1]: racemate compared with either D or L isomer alone, U.S. Pat. No. 4,695,576; cited from earlier work.
For data set [2] the following is noted: reported in U.S. Pat. No. 4,870,086; cited from earlier work.
Data set [3] can be described thus: Content of ropivacaine base dissolved in the filtered solution, by HPLC against a control solution. To be noted: equimolar or less concentrated hydrochloric acid, even at about 60° C. It is filed as physicochemical. On the procedure: Each resulting solution was warmed to about 50° C. and then cooled to room temperature with stirring for about 30 min., after which was added a suitable quantity of sodium chloride, and the total volume of each was made up to 25 mL. Osmolality of the filtered solution was determined using conventional freezing point osmometer. The pH of these solutions were in the range 3.2 to 3.5. The content of ropivacaine base dissolved in the solution was determined by HPLC against a control solution prepared by dissolving the same base in excess of hydrochloric acid.
Each resulting solution was warmed to about 50° C. with stirring for about 30 min., then cooled to room temperature, after which was added a suitable quantity of sodium chloride. The pH was then adjusted to 5.0 using sodium hydroxide solution, and then the volume was made up to 25 mL. The osmolality of the filtered solution was determined using conventional freezing point osmometer. The content of ropivacaine base dissolved in the solution was determined by HPLC against a control solution prepared by dissolving the same base in excess of hydrochloric acid.

Data set [4] can be described thus: Hygroscopicity and stability of ropivacaine base and its salts. The format is physicochemical.
The conditions of data set [5]: optically pure form compared to the racemic mixture of bupivacaine; cited from earlier work.

As for `CCCCN1CCCCC1C(=O)Nc1c(C)cccc1C` (racemic) [bupivacaine, racemic N-n-butylpipecolic acid-2,6-xylidide], the analgesic effects result in data set [1] is reported as “better analgesic effects”.
With `CCCN1CCCC[C@H]1C(=O)Nc1c(C)cccc1C.Cl` [(L) N-n-propylpipecolic acid-2,6-xylidide hydrochloride], the hygroscopicity / stability result in data set [2] was “hygroscopic and thus not stable”.
`CCCN1CCCC[C@H]1C(=O)Nc1c(C)cccc1C` [ropivacaine base, (L) N-n-propylpipecolic acid-2,6-xylidide]: the “dissolution in aqueous media” value in data set [3] is “did not yield a completely homogeneous solution”. Also, in data set [4], the hygroscopicity entry was “not hygroscopic” and the “stability compared with its hydrochloride or hydrochloride monohydrate salts” value is “much more stable”. The cardio-toxic potential result in data set [5] is on record as “reduced cardio-toxic potential”.
